Results taken from patent US9822343B2, “Methods and materials for obtaining induced pluripotent stem cells” (priority 2011, dated 2017).

Experiments:
Format in all cases: cell-based, mouse
[1] = test system: parental MEF population; assay: Growth of the parental MEF population; details: 1.25 mM 2-DG, 100 μM BrPA, 5 mM DCA
[2] = test system: MEFs undergoing nuclear reprogramming; assay: Reprogramming efficiency by FACS analysis of SSEA-1 expression; details: vehicle 27.8±3.1, mean±SEM, n=3
Excerpt: (§1) Mouse embryonic fibroblasts (MEFs) were transduced with HIV-based viral vectors encoding OCT3/4, SOX2, and KLF4 either in the presence (4F) or absence of c-MYC (3F) to produce iPS clones that met pluripotent criteria including expression of stem cell markers, embryoid body differentiation, teratoma formation, diploid aggregation, and contribution to organogenesis (Martinez-Fernandez et al., Circ. Res., 105:648-656 (2009); Nelson et al., Clin. Transl. Sci., 2:118-126 (2009); and Nelson et al., Circulation, 120:408-416 (2009)). Alternatively, iPS cells were derived with a viPS (Open Biosystems) kit. iPS cells were induced and maintained in ES Cell qualified DMEM supplemented with 15% FBS, 25 mM glucose, 2 mM Glutamax (Invitrogen), and 1 mM sodium pyruvate. In reprogramming experiments, media was supplemented with 0.25 or 1.25 mM 2DG (Sigma), 100 μM BrPA (Sigma) or 5 mM DCA (Sigma). Reprogramming efficiency was quantified using an alkaline phosphatase staining kit (Stemgent) or FACS analysis of SSEA-1 expression (Millipore) on a LSR II flow cytometer.

[3] = test system: MEFs; assay: 1H NMR metabolomic footprinting of extracellular metabolites of treated MEFs; details: control experiments; 1.25 mM 2-DG, 100 μM BrPA, 5 mM DCA versus vehicle; n=3
Description: For footprinting of extracellular metabolites, 540 μL of media collected following 24 hours of culture was added to 60 μL of D2O (Sigma) containing 5 mM sodium 3-(trimethylsilyl)propionate-2,2,3,3-d4 (TSP) (Sigma) for chemical shift reference and 81.84 mM formate (Sigma) for peak quantification reference as described elsewhere (Turner et al., Stem Cells, 26:1547-1555 (2008)). Briefly, MEFs, iPS cells, and R1ESC were maintained in DMEM containing 15% FBS, pyruvate, L-glutamine, nonessential amino acids, 2-mercaptoethanol, and LIF in 6 well plates at 37° C. in a humidified incubator with 95% air and 5% CO2 (Martinez-Fernandez et al., Circ Res., 25; 105(7):648-56 (2009)). […]
For intracellular metabolite fingerprinting, neutralized perchloric acid extracts were concentrated with a SpeedVac and suspended in 600 μL of 100 mM phosphate buffer (pH 7.0) in D2O (Sigma) containing 0.5 mM TSP as described elsewhere (Beckonert et al., Nat. Protoc., 2:2692-2703 (2007)). […] Following Fourier transformation, spectra were autophased with metabonomic phase correction, baseline corrected using a Bernstein polynomial fit and referenced to the TSP peak (0.00 ppm) using MestReNova 5.3.2 (MestRelab Research). p-toluenesulfonic acid (Sigma) was utilized as a reference standard to calibrate the formate concentration for quantitative analysis (Shao et al., J. Chromatogr. A, 1138:305-308 (2007)). […]

[4] = test system: MEFs undergoing nuclear reprogramming; assay: Reprogramming efficiency by alkaline phosphatase staining; details: 2-DG during reprogramming (media supplemented with 0.25 or 1.25 mM 2DG)
Excerpt: as §1

With `O=C(O)C(=O)CBr` [BrPA, 3-bromopyruvic acid] the “Cell growth of parental MEF population” value [1] was “without impairing cell growth”, the “% SSEA1 positive cells (reprogramming efficiency)” value (from here on “% SSEA1 positive cells”) ([2]; 100 μM BrPA during reprogramming) was 19.8±1.0 % SSEA1 positive cells and the “Extracellular metabolite profile of treated MEFs” value [3] was “consistent with inhibition of glycolysis and stimulation of oxidative metabolism”.
For `O=C(O)C(Cl)Cl` [DCA, dichloroacetate], the “Cell growth of parental MEF population” value [1] was “without impairing cell growth” and the “% SSEA1 positive cells” value ([2]; 5 mM DCA during reprogramming) was 17.3±1.5 % SSEA1 positive cells.
For `O=CC[C@@H](O)[C@H](O)[C@H](O)CO` [2-DG, 2-deoxyglucose], the “Induction of the pluripotent marker alkaline phosphatase” value [4] was “blunted induction of the pluripotent marker alkaline phosphatase”, the “Cell growth of parental MEF population” value [1] was “without impairing cell growth” and the “% SSEA1 positive cells” value ([2]; 1.25 mM 2-DG during reprogramming) was 0.9±0.3 % SSEA1 positive cells. The “Extracellular metabolite profile of treated MEFs” value [3] was “consistent with inhibition of glycolysis and stimulation of oxidative metabolism”.
